The source of these data is a melting point compilation (Tetko et al.; mined from patent text by program, amines drawn as free bases though some values may be those of a salt).

Structures are written as SMILES.

`COC(=O)c1ccc2ccc(OC)cc2c1O` yielded a melting point of 80 to 83 °C. Turning to `CCCc1nn(C)c(C(N)=O)c1N`, the melting point was in the range of 96 to 98 °C.

The compound `O=C1CCC(N2Cc3c(CNC(=O)Nc4ccc(Cl)c(Cl)c4)cccc3C2=O)C(=O)N1` (centres undefined) yielded a melting point of 253 to 255 °C. The figure for `CC(=O)NC[C@H]1CN(c2ccc(N3CCC(C#N)(Nc4ccc(C#N)cc4)CC3)c(F)c2)C(=O)O1` is 210 to 212 °C. For the compound `CCOC(=O)c1ccccc1SN(C(=O)NC(=O)c1ccccc1Cl)c1ccc(Oc2ccc(C(F)(F)F)cc2Cl)cc1`, the melting point was 98 to 100 °C. `O=C(O)C(CBr)(CBr)COCC(CBr)(CBr)C(=O)O` came in with a melting point of 189 to 193 °C. `Cc1cc(C(=O)OC2CC3C(=O)NC4(C(=O)NS(=O)(=O)C5CC5)CC4C=CCCCCCC(NC(=O)OC(C)(C)C)C(=O)N3C2)no1` (centres undefined) gave a melting point of 157 to 159 °C. The figure for `CCNC(=O)C(=CNc1ccc(I)cc1)C(=O)c1ccccc1Cl` is 160 to 162 °C. The figure for `O=C(NC1CCCCC1)n1cc(F)c(=O)[nH]c1=O` is 276 to 278 °C.

For `CS(=O)(=O)c1ccc(-c2cnn(-c3ccc(S(N)(=O)=O)cc3)c(=O)c2-c2ccc(F)cc2)cc1`, the melting point fell in the range of 213 to 216 °C. With `O=C(Nc1cccc(-n2nc(C(F)(F)F)cc2C(F)(F)F)c1)c1cc([N+](=O)[O-])ccc1Cl` the figure was 147 to 152 °C. In turn, `CCCC(=O)Oc1c(-c2ccc(-c3ccccc3)cc2)nc2ccccc2c1C(=O)O` came in with a melting point of 195 to 196 °C. For `CCCCOC1OC(CO)C(O)(N(CC)C(=O)N(CCCl)N=O)C(O)C1O` (centres undefined), the melting point was 75 to 77 °C. The figure for `CC(C)(C)OC(=O)NCCCN(CCCCOC(=O)NCNC(=O)CCCCCCNC(=O)OCc1ccccc1)C(=O)OC(C)(C)C` is 115 °C. With `COc1cc2cnnc(Cl)c2cc1OC` the figure was 195 to 197 °C. With `COc1ccc(C2=c3c(c4c(c5ccccc35)=C(c3ccc(OC)cc3)CO4)NC2)cc1` the figure was 340 °C; with `COC(=O)C(Cc1ccccc1)NC(=S)Nc1nc(C)cs1` (racemic), 131 to 132 °C.

Regarding `COc1ccc(/C=C(\C#N)c2ccccc2N)cc1OC1CCCC1`, the melting point was in the range of 81 to 82.5 °C. Compound `O=C(O)C=Nc1cccc(F)c1C(=O)O` showed a melting point of 169 °C. In turn, `CN(C)C(=O)CON(Cc1ccc(F)cc1)C(=O)C1=C(O)C(=O)N(C)C1` registered a melting point of 147 to 149 °C. With `CCOc1ccc(-c2nn(C(C)c3oc4ccccc4c(=O)c3-c3cccc(F)c3)c3ncnc(N)c23)cc1F` (centres undefined) the figure was 216 to 218 °C; with `CCOC(=O)CCCCn1c(=O)[nH]c2ccc([N+](=O)[O-])cc2c1=O`, 173 to 174 °C. With `COCOc1ccccc1-c1cc(-c2cccc([N+](=O)[O-])c2)c(C#N)c(N)n1` the figure was 169 to 171 °C; with `CCCCCCCC(=O)c1ccc(CCOS(=O)(=O)c2ccc(C)cc2)cc1`, 59 to 60 °C; with `CC(C)NC(=O)CC(CC1(C(=O)N[C@H]2CCc3ccccc3N(CC(=O)O)C2=O)CCCC1)C(=O)O` (some centres undefined), 145 °C. As to `CCOC(=O)NC(C)CC(NC(=O)OCC)NC(=O)OCC` (centres undefined), the melting point was 103 to 105 °C. `CCC(=O)C(=C1NCCCS1)[N+](=O)[O-]` registered a melting point of 77.5 to 79.5 °C. With `CC(C)(CO)COc1ccc(-c2c(C(N)=O)oc3ccccc23)cc1C#N` the figure was 199 to 201 °C; with `CCOC(=O)c1ccccc1N(CC(=O)N(C)c1ccccc1)C(=O)CNC(=O)Nc1cccc(C)c1`, 201 °C; with `COc1nc(Cc2nn(C)c(C)c2NS(=O)(=O)C(F)(F)F)nc(OC)n1`, 145 °C. As to `CC(=O)SCC(CC(=O)c1ccc(Br)cc1)C(=O)OCc1ccccc1` (centres undefined), the melting point lay within 79 to 80 °C. Compound `CC(C)(c1ccccc1)N1CCC=C(c2ccccc2)C1=O` had a melting point of 119 to 120 °C. The figure for `CCN(CC)c1ccc(C2(c3ccc(N(C)C)cc3)OC(=O)c3cc(N(C)C)ccc32)c(C)c1` (centres undefined) is 190 to 195 °C; for `COc1cc(Nc2c(C#N)cnc3cc(SCc4ccccc4)c(OC)cc23)c(Cl)cc1Cl` it is 123 to 125 °C; for `CC(C)COc1ccc(-c2ccc3nnn(Cc4ccc5ccccc5n4)c3n2)cc1F` it is 115 to 157 °C.

Consider `CC(C)(C)c1cc(SCCc2n[nH]c(=O)o2)cc(C(C)(C)C)c1O`, for which the melting point fell in the range of 86 to 87.5 °C. In turn, `CC(=O)C1CC2=C(CO1)C(=O)c1ccccc1C2=O` (centres undefined) displayed a melting point of 135 to 136 °C.

`Cc1ccc(C(=O)Nc2ccc(CN3CCCC3)c(C(F)(F)F)c2)cc1-c1ccc2cnncc2c1` came in with a melting point of 168 to 170 °C. For the compound `CCOC(=O)c1cc(N)ccc1OC(C)=O`, the melting point fell in the range of 82.5 to 83 °C. The figure for `COc1nc(SCc2ccc(F)cc2)cnc1NS(=O)(=O)c1cccc(Cl)c1Cl` is 119 to 120 °C; for `Cc1ccc(S(=O)(=O)OC[C@@H]2NC(=O)[C@@H]2N=[N+]=[N-])cc1` (relative stereo) it is 77 to 78 °C; for `CCCc1cc2c(NCCc3ccccc3)ncnc2s1` it is 110 °C. As to `CC(C)(CCl)C(OC(=O)C(Cl)Cl)C(Oc1ccc(Cl)cc1)n1ccnc1` (centres undefined), the melting point fell in the range of 108 to 110 °C.

`Cc1nnc(C(C)NC(=O)CC(C)C)c(=O)[nH]1` (centres undefined): the melting point lay within 224 to 226 °C. Compound `COC(=O)c1ccc(OCCON=C(C)c2ccc(C(C)(C)C)cc2)cc1O` returned a melting point of 65.4 to 66.8 °C. The figure for `CC#CCOc1cc(OCc2cccc(F)c2F)ncn1` is 84.9 °C; for `Cc1c2n(c3ccccc13)C(=O)C(Cc1c[nH]cn1)CC2` (centres undefined) it is 156 to 157 °C; for `CCCCCCCOc1ccc(C(N)=O)cc1` it is 149 to 152 °C. The figure for `COc1ccc(C=C2NC(=O)NC2=O)cc1OCc1ccccc1` is 242 to 244 °C; for `Cn1cc(C(=O)NCc2ccc(Cl)cc2)c(=O)c2cc(CCCO)cc(OCCO)c21` it is 175 to 179 °C; for `Cc1oc(-c2ccccc2)nc1COc1ccc(COc2ccc(OCc3ccccc3)cc2CC(=O)O)cc1` it is 140 to 141 °C.

On to `CC(C)c1sc2ncnc(N)c2c1-c1ccc(N)cc1`, for which the melting point was in the range of 187 to 189 °C. Regarding `CCCC(Nc1ccc(OCc2ccccc2)cc1)C(=O)OCC` (centres undefined), the melting point was 68 °C.

`CCc1nnc(CCc2ccc(NC(=O)/C=C/c3cnn(C)c3-c3ccc(F)cc3)cc2)o1` yielded a melting point of 167 to 168 °C. The compound `CC(O)CN(C)Cc1cc2c(=O)c(C(=O)NCc3ccc(Cl)cc3)cn(C)c2o1` (centres undefined) came in with a melting point of 152 °C. As for `Nc1ccc(-c2nnn(-c3ccc(C(F)(F)F)cc3F)c2N)cc1`, the melting point fell in the range of 164 to 165 °C. Turning to `COc1cc([N+](=O)[O-])ccc1-c1ccccc1`, the melting point was determined as 71 °C.

As for `N#Cc1cc(=O)c2ccc(OCCCCl)cc2o1`, the melting point lay in the range of 124 to 125 °C. `COC(=O)C1=C(C)NC(C)=C(C(=O)OCCN2CCN(C(c3ccccc3)c3ccccc3)CC2)C1c1cccc([N+](=O)[O-])c1` (centres undefined) gave a melting point of 166 to 169 °C. With `O=C1c2cccc(SCCC(O)O)c2C(=O)c2cccc(SCCC(O)O)c21` the figure was 238 to 239 °C. The figure for `CS(=O)(=O)Nc1ccc(OCCCNC(=O)c2ccc(Br)cc2)cc1` is 208 to 209 °C. With `c1cnc(C2CC(c3cnccn3)CC(c3cnccn3)C2)cn1` (centres undefined) the figure was 122 to 124 °C; with `COc1c(N2CCNCC2)c(F)cc2c(=O)c(C(=O)O)c3n(c12)C(C)S3` (centres undefined), 278 to 280 °C. As for `COC(=O)c1cc(F)c(Cl)nc1Nc1ccc(F)cc1F`, the melting point is 137 to 139 °C. With `COc1ccc(C[C@@H](NC(=O)CCCc2ccccc2)[C@@H](O)c2ccc(F)cc2)cc1` (racemic) the figure was 130 to 131 °C. For `COC(=O)C1Oc2ccc(Cl)cc2C(c2ccccc2)(c2ccccc2)O1` (centres undefined), the melting point came to 172 °C. With `CCN(CC)CCN1c2cc(Cl)ccc2S[C@H]2[C@@H](OC(=O)c3ccccc3)[C@H](OC(=O)c3ccccc3)[C@@H](COC(=O)c3ccccc3)O[C@H]21` the figure was 124 to 126 °C; with `Cc1cnc(N2CCC(c3ccc(N)cc3)CC2)n1C`, 219 to 220 °C. The figure for `C=CCc1cc(C=C2N=C(C)OC2=O)ccc1OC(C)=O` is 108 to 109 °C; for `CC(=O)c1c(CN2CCOCC2)[nH]c2ccc(Cl)cc12` it is 120 to 121 °C; for `CN1CCC(OC2c3ccccc3CCn3c2nc(-c2ccccc2)c3I)CC1` (centres undefined) it is 153 °C.

The compound `CCOc1sc(C(=O)N2CCCC2)c2c1-c1oncc1C(C)(C)C2` registered a melting point of 123 to 126 °C. On to `CC(CCO)NC1=NS(=O)(=O)c2sc(Cl)cc2N1` (centres undefined), for which the melting point lay within 199 to 203 °C. The figure for `Cc1ccccc1S(=O)(=O)NC1CCc2sc(-c3ccc(=O)[nH]n3)cc2C1` (centres undefined) is 242 to 247 °C; for `CCCC(=O)N1CCC(C(=O)OC2c3ccccc3C(=O)N2c2ccc3ccc(Cl)nc3n2)CC1` (centres undefined) it is 165 °C. The figure for `CCNc1nc(NCC)nc(-c2ccc(-c3ccccc3)cc2)n1` is 183 to 184 °C; for `O=C(c1ccc(-c2cccs2)cc1)N1Cc2ccccc2Nc2ccccc21` it is 114 to 116 °C. The figure for `CCCCN(CCCC)c1ccc(C=Cc2ccc(C=CC3=C(C#N)C(=C(C#N)C#N)OC3(C)C)cc2)c(OC)c1` is 258 to 260 °C. Turning to `COc1ccc(C(=O)Cc2ccc3ccccc3c2)cc1`, the melting point was in the range of 132 to 134 °C. With `CCOc1ccc2c(c1)n(C1CCCCC1)c(=O)n2Cc1ccc(NC(=O)N(C)CCO)cc1OC` the figure was 157 °C. The figure for `CC(C)(Cn1cncn1)C(O)(CCc1ccc2ccccc2c1)Cn1cncn1` (centres undefined) is 77 to 80 °C. On to `O=C1CC2(C(=O)N1)C(=O)N1CCCc3cc(Cl)cc2c31` (centres undefined), for which the melting point was 268 to 269 °C. With `CNS(=O)(=O)Cc1ccc2[nH]cc(CCN=CNc3ccccc3)c2c1` the figure was 72 to 73 °C; with `Clc1ccc(Nc2nc3ccccc3c3[nH]c(C4CCC4)nc23)cc1Cl`, 131 to 134 °C.

By melting point is commonly meant the temperature of the solid-liquid transition.
